# Measured values as given in patent US20220275037A1, “ß-AMYLOID CYCLIC RIBONUCLEIC ACID, POLYPEPTIDE, AND APPLICATION THEREOF” (priority 2019, published 2022).
# Legend:
# circAβ-a = assay: qRT-PCR of circAβ-a under ASO treatment; assay type: cell-based, human; conditions: cells overexpressing circAβ-a, vs Scr. ASO
# Description: (§1) FIG. 7A. Schematic diagram of the designing of anti-circAβ-a-ASO. FIG. 7B. β-amyloid circular ribonucleic acid qRT-PCR results under ASO treatment; BE-Aβ represents the plasmid overexpressing circAβ-a using pCircRNA-BE vector; DMo-Aβ represents the overexpression using pCircRNA-DMo vector circAβ-a plasmid; Scr. ASO means negative control experiment ASO. FIG. 7C. qRT-PCR results of APP mRNA under ASO treatment.
# (§2) In this example, the specific antisense oligonucleotide (ASO) against β-amyloid cyclic ribonucleic acid (circAβ) is used to inhibit and degrade circAβ to prevent and treat Alzheimer's disease. As shown in FIGS. 7A-7C, the level of the circular RNA in the cell is reduced by antisense oligonucleotides (anti-circAβ-a-ASO) against β-amyloid cyclic ribonucleic acid-a (circAβ-a). The APP mRNA was not affected (FIG. 7C). As shown in the figure, antisense oligonucleotides containing SEQ ID No. 41-57 anti-amyloid cyclic ribonucleic acid (circAβ). Antisense oligonucleotides recognize β-amyloid circular ribonucleic acid through base complementary pairing. Antisense oligonucleotides that bind target RNA can degrade target RNA by activating RNase H enzyme activity (FIGS. 7A-7C). Antisense oligonucleotides can also regulate (such as inhibit) protein translation by binding to target RNA.
# APP mRNA = assay: qRT-PCR of APP mRNA under ASO treatment; assay type: cell-based, human
# Description: as §1, §2
sequence,measurement,setting,value
"AAGCAGCTCATCTCCACCACAC (listed as DNA, chemistry not given here) [anti-circAβ-a-ASO, antisense oligonucleotide against circAβ-a]",level of circAβ-a in cells,circAβ-a,reduced
same,APP mRNA level,APP mRNA,not affected
